In data set [1] the test system is H1975 cells. Description: Cisplatin resistance validation in H1975 cells. The data set is classed as cell-based. To be noted: H1975, homozygous c.818G>A mutation of the TP53 gene. From the text: (§1) (B) Validation of the effects of cisplatin in two LUAD cell lines, H1299 (with a homozygous partial deletion of the TP53 gene) and H1975 (homozygous for the c.818G<A mutation of the TP53 gene).

The subject of data set [2] is A549 cells. The experiment in a line: Caspase 3 dependent apoptotic response induced by cisplatin (Western blot). The data set is classed as cell-based. To be noted: miRNA overexpression in A549 cells. (In western blotting, separated proteins are transferred to a membrane and probed.)
Data set [3] deals with human BIM 3′UTR. The experiment in a line: Luciferase assay, BIM 3′UTR psiCHECK-2 construct in HEK293 cells. The class given is cell-based. To be noted: two days after co-transfection, versus pre-miR-Neg. How it is done:
(§2) (B): Results of luciferase assays in HEK293 cells transfected with the indicated constructions and pre-miR-24-3p or control miRNA.
(§3) Cells were harvested two days after transfection and luciferase activity were analysed. All renilla luciferase activities were normalized with firefly luciferase activity. **p<0.01.
(§4) Luciferase assay. Molecular constructs were made in psiCHECK-2 (Promega) by cloning behind the Renilla luciferase in the XhoI and NotI restrictions sites, annealed oligonucleotides derived from BIM, PUMA 3′ UTR. HEK293 cells were plated into 96-well and cotransfected using lipofectamin 2000 (Invitrogen) with 0.2 μg of psiCHECK-2 plasmid construct and pre-miR-24-3p or control miRNA at different concentrations. 48 hours after transfection, Firefly and Renilla Luciferase activities were measured using the Dual-Glo Luciferase assay (Promega).

In data set [4] the test system is A549 cells. The experiment in a line: Cisplatin sensitivity of A549 cells overexpressing miRNA (Annexin V/PI, ATP-based viability). The data set is classed as cell-based. How it is done:
A549 cells were transfected with pre-miR-24-3p for 2 days and the transfected cells were then exposed to either cisplatin or vinorelbin.
(A): Annexin V/PI staining of A549 cells overexpressing miR-24-3p and exposed to 60 μM cisplatin for 24 h.
(B): Vinorelbin dose response analysis of A549 cells overexpressing miR-24-3p. An ATP-based assay was used to assess cell viability.
(§5) Transfection. Pre-miR-24-3p, and control miRNA (miR-Neg #1) were purchased from Life technologies. For miR-24-3p knockdown experiments, LNA anti-miR-24-3p and LNA negative control were ordered from Exiqon. siRNA directed against BIM, PUMA, PNPO and PDXK were purchased from Life technologies. A549 and H1299 cells were grown in 10% FCS in DMEM and transfected at 30 to 40% confluency in 6-12- or 96 well plates using Lipofectamin RNAi MAX™ (Life technologies) with pre-miRNA, siRNAs LNA inhibitors at a final concentration of 5 nM unless indicated.
Annexin V assay. Annexin-V-FITC apoptosis detection kit (Life technologies) was used to detect apoptotic activity. […] Annexin-V-FITC binding was determined by flow cytometry (excitation wavelength of 488 nm; emission wavelength of 530 nm) using the FITC signal detector (FL1), and propidium iodide staining was detected by the phycoerythrin emission signal detector (FL2).

In data set [5] the test system is A549 cells. Description: Functional genetic screen for miRNAs inducing cisplatin resistance. The data set is classed as cell-based. Particulars: pre-miR library transfected two days, then cisplatin 60 μM three days, Cell Titer Glow assay. How it is done: A549 cells were transfected with the pre-miR library for two days and the transfected cells were then exposed to cisplatin at 60 μM for three days. Cell viability was measured in single well using Cell Titer Glow assay.
(A): Plot of normalized viability versus −log10 FDR-adjusted P-value for all miRNAs overexpressed in A549 cells. Vertical dashed lines denote the selected normalized viability cutoff, while the Horizontal line denotes the 0.01 selected FDR-adjusted P-value cutoff. Each dot represents a miRNA. Dots surrounded in the upper right quadrant represent miRNAs associated with cisplatin resistance at the chosen cutoffs. The standardized residual viability of the miR-24-3p miRNA was estimated at 4.9512.
Functional genetic screen. Mimics were transfected in authenticated A549 lung adenocarcinoma cell line in 96 well plate format. 48 h following transfection, cells were exposed to cisplatin at 60 μM (2 times DL50; DL50 corresponding to the drug concentration lethal to 50% of the tumor cells) for three days. Viability was assessed using the cell titer glo assay (Promega). […]
miRNA candidate selection. miRNA candidates were selected for further analysis based on statistical significance (p<0.01) and degree of resistance induced (assessed by viability after drug exposure, normalized viability above 3).
A general note: ATP-based viability assays read luminescence as a measure of living cells.

Data set [6] deals with PUMA 3′UTR. The experiment in a line: Luciferase assay, PUMA 3′UTR psiCHECK-2 construct in HEK293 cells. The class given is cell-based, human. To be noted: two days after co-transfection, versus pre-miR-Neg. How it is done: as §2, §3, §4
Data set [7] relates to A549 cells. Description: DNA damage response induced by cisplatin (nuclear foci, confocal microscopy). The class given is cell-based. Particulars: 7 h following cisplatin exposure, miRNA overexpression. How it is done: A549 cells overexpressing miR-24-3p were exposed to cisplatin for 7 h and nuclear foci of (i) phosphorylated histone H2A.X at SER139 (y-HAX) and (ii) phosphorylated ATM at Ser1981 (p-ATM) were assessed by confocal microscopy.
(C): percentage of cells (n=3) exposed to cisplatin and containing more than five nuclear foci of y-HAX and phosphor-ATM, respectively after miR-24-3p overexpression.
Immunofluorescence analysis. A549 cells were grown on a Round Glass Coverslips Ø16 mm (thermo scientific) placed inside a 12 Multiwell Plate. Coverslips slides were washed in phosphate-buffered saline and fixed in 4% paraformaldehyde for 15 min, cells were then permeated using 0.1% Triton X-102 (Agilent Technologies) for 10 min. and blocked with PBS solution containing BSA (3%) for 30 min. Incubation with primary antibodies was performed in a blocking solution BSA (1%) at 37° C. for 1 h. After three washes with PBS, cells were incubated with secondary antibodies. Forty five min later, Coverslips slides were fixed on microscope slides using ProLong Gold Antifade Reagent with DAPI (Invitrogen). Fluorescence was viewed with an FV10i Olympus confocal scanning microscope.

The test system of data set [8] is H1299 cells. Description: Cisplatin resistance validation in H1299 cells. To be noted: H1299, homozygous partial deletion of the TP53 gene. The class given is cell-based.
Excerpt: (A) Kill curve of H1299 cells (with a homozygous partial deletion of the TP53 gene) overexpressing miR-24-3p or a miRNA control and exposed to increasing dose of cisplatin.
as §1, §5
Functional genetic screen validation for miR-24-3p. Data were confirmed independently on a distinct lung adenocarcinoma cell line (H1299). Specificity to cisplatin resistance was assessed using docetaxel and vinorelbine.

Consider “pre-miR-24-3p: miRNA mimic purchased from Life technologies, used to overexpress miR-24-3p (UGGCUCAGUUCAGCAGGAACAG, SEQ ID No:1) (listed as RNA, chemistry not given here)”, for which the cisplatin resistance result in data set [1] is given as “contributed to cisplatin resistance independently of p53”. Also, in data set [2], the “caspase 3 dependent apoptotic response induced by cisplatin” value is recorded as “strongly inhibits”. Further, the “direct targeting of BIM 3′UTR (renilla luciferase normalized with firefly)” value in data set [3] is “direct targets”. The “resistance to platinum based-compounds (cisplatin, carboplatin, oxaliplatin)” value in data set [4] (A549 cells overexpressing the miRNA, comparison with vinorelbin treatment) is on record as “strongly resistant”. In addition, the response to cisplatin result in data set [4] (A549 cells transfected with pre-miR, versus cells not overexpressing miR-24-3p) is on record as “the response to cisplatin was lesser”. The substance also yielded a standardized residual viability in data set [5] of 4.9512. For the same substance, the “direct targeting of PUMA 3′UTR (renilla luciferase normalized with firefly)” value in data set [6] is recorded as “direct targets”. In addition, in data set [7], the ATM signaling entry is listed as “decreased ATM signaling” and the “DNA damage (phospho-yH2AX nuclear foci)” value was “less DNA damage”. In addition, in data set [8], the cisplatin resistance result is “contributed to cisplatin resistance independently of p53”.

These data come from patent US20220389420A1, “AGENTS FOR THE TREATMENT OF PATIENTS WITH NSCLC AND METHODS TO PREDICT RESPONSE” (CENTRE NATIONAL DE LA RECHERCHE SCIENTIFIQUE, priority 2016, published 2022).
